Measurements taken from patent US8846699B2, “Quinazoline derivatives as a multiplex inhibitor and method for the preparation thereof” (Hanmi Pharm. Co., Ltd., priority 2005, dated 2014).

Tests used:
VEGFR2 (KDR) = VEGFR2 (KDR) (Homo sapiens (Human), UniProt P35968); assay: VEGFR2 (KDR) enzyme assay, fluorescence polarization; format: biochemical; settings: 5 μM ATP, poly(Glu, Tyr) substrate
Procedure: VEGFR2 (KDR, Proquinase) enzyme assay (auto-phosphorylation assay) was carried out by using Tyrosine Kinase Assay Kit Green (Panvera). The entire assay was conducted in accordance with VEGFR PTK inhibitor cellular activity test S.O.P.
A typical kinase inhibition reaction requires a protein tyrosine kinase, a suitable buffer solution system, a peptide substrate and ATP. In the present VEGFR tyrosine kinase assay, a buffer solution system containing 20 mM HEPES (pH 7.4), 5 mM MgCl2 and 2 mM MnCl2; 50 μM Na3VO4; 200 ng/10 μl VEGFR (Proquinase); 5 μM ATP; and 10 ng/ml poly(Glu, Tyr) (4:1, Sigma) as a substrate were used.
The compounds of Test Example 1 were used as control compounds at a concentration of 0.0001 to 10 μM. After 10 min, 10 μl of poly(Glu, Tyr) as a substrate was added to each well, and 10 μl of ATP was added thereto to initiate kinase reaction. The plate was incubated at room temperature for 1 hour, and 10 μl of 100 mM EDTA was added to each well to terminate the kinase reaction.
The added EDTA was mixed for 5 min. Thereafter, 10 μl of 10× anti-phosphotyrosine antibody (Panvera), 10 μl of 10×PTK Green Tracer (Panvera) and 30 μl of FP dilution buffer (Panvera) were added thereto, and the plate was incubated in a dark room at room temperature for 30 min.

[1] = test system: colon and rectal cancer cell line, SW-620; assay: Inhibitory effect on growth of cancer cell line SW-620, SRB; format: cell-based; settings: Homo sapiens, 72 h, not having overexpressed EGFR and EGFR2
Excerpt: (§1) A skin cancer cell line, A431 (ATCC: CRL-1555), a breast cancer cell line, SK-Br3 (ATCC: HTB-30), and a colon and rectal cancer cell line, SW-620 (ATCC: CCL-227) were used to test the degrees of cancer cell growth inhibition using a culture medium, DEME (Dulbecco's Modified Eagle's Medium, JBI) including 4.5 g/l of glucose and 1.5 g/l of sodium bicarbonate and supplemented with 10% FBS (fetal bovine serum, JBI).
(§2) The cancer cell lines stored in a liquid nitrogen tank were each quickly thawed at 37° C., and centrifuged to remove the medium. The resulting cell pellet was mixed with a culture medium, incubated in a culture flask at 37° C. under 5% CO2 for 2 to 3 days, and the medium was removed. The remaining cells were washed with DPBS (Dulbecco's Phosphate Buffered Saline, JBI) and separated from the flask by using Trypsin-EDTA solution, and the separated cells were diluted with a culture medium to a concentration of 1.0×10^6 cells/ml in case of A431 and SW-620, and 2.0×10^6 cells/ml in case of SK-Br3. 100 μl of the diluted cell solution was added to each well of a 96-well plate, which was incubated at 37° C. under 5% CO2 for 1 day.
(§3) In case that the test compound was not soluble in DMSO, a small amount of 1% HCl was added thereto and treated in a 40° C. water bath for 30 mins until complete dissolution was attained. The test compound solution was diluted with a culture medium to a final concentration of 10 μM, and then diluted 10 times serially to 10^−4. The final concentration of DMSO was less than 1%, and the control compounds of Test Example 1 were used at a concentration of 0.0001 to 10 μM.
(§4) The medium was removed from each well of the 96-well microplate, 100 μl of a diluted test compound solution was added to each well holding cultured cells, and the microplate was incubated at 37° C. under 5% CO2 for 72 hours. After removing the medium from the plate, 50 μl of 10% trichloroacetic acid was added to each well, and the plate was kept at 37° C. for 1 hour to fix the cells to the bottom of the plate. 10% trichloroacetic acid was removed from each well, the plate was dried, 100 μl of an SRB (Sulforhodamine-B, Sigma) dye solution was added thereto, and reacted for 10 mins. The SRB dye solution was prepared by dissolving SRB in 1% acetic acid to a concentration of 0.4%. After removing the dye solution, the plate was washed with water, and dried. When the dye solution was not removed by water, 1% acetic acid was used.
(§5) 150 μl of 10 mM trisma base (Sigma) was added to each well, and the absorbance at 570 nm was determined with a microplate reader (Molecular device).

[2] = test system: skin cancer cell line, A431; assay: Inhibitory effect on growth of cancer cell line A431, SRB; format: cell-based; settings: Homo sapiens, A-431, 72 h, overexpressed EGFR1 (HER-1)
Excerpt: as §1, §2, §3, §4, §5

[3] = test system: Human Umbilical Vein Endothelial Cell (HUVEC); assay: Inhibitory effect on growth of human umbilical vein endothelial cell (HUVEC), MTS; format: cell-based; settings: Homo sapiens, 96 h, 10 ng/ml VEGF, absorbance 490 nm
Procedure: HUVECs (Young Science, Inc) were suspended in a culture medium, EBM-2 (Endothelial Basic Media, Cambrex) supplemented with 2% bovine serum (Cambrex) and auxiliary additives for HUVEC culture (e.g., EGF, VEGF, FGF, etc., Cambrex), inoculated into a culture flask coated with 1% gelatin, and incubated in an incubator at 37° C. under 5% CO2 and 100% humidity.
100 μl of 5% bovine serum medium containing 10 ng/ml of vascular endothelial growth factor (VEGF) and auxiliary additives, while excluding other growth factors was added to each well of a 96-well plate. […] DMSO (Dimethylsulfoxide) was used to dissolve the test compounds, and the final concentration of DMSO was less than 1%.
100 μl of the diluted cell solution was added to each well of the 96-well plate, which was incubated in an incubator for 96 hours.
Then, 20 μl of MTS ([…], Promega) solution was added to each well of the plate, and the plate was incubated in an incubator for 4 hours to induce discoloration. After 4 hours, the pellets were dissolved by way of a thorough shaking, and the absorbance at 490 nm was determined.

[4] = test system: breast cancer cell line, SK-Br3; assay: Inhibitory effect on growth of cancer cell line SK-Br3, SRB; format: cell-based; settings: Homo sapiens, SK-BR-3, 72 h, overexpressed EGFR2 (HER-2)
Excerpt: as §1, §2, §3, §4, §5

EGFR1 (HER-1) = EGFR1 (HER-1) (Homo sapiens (Human), UniProt P00533); assay: EGFR1 (HER-1) enzyme assay, fluorescence polarization; format: biochemical; settings: 100 μM ATP, poly(Glu, Tyr) substrate
Chain of EGFR1 (HER-1) (P00533 25-1210): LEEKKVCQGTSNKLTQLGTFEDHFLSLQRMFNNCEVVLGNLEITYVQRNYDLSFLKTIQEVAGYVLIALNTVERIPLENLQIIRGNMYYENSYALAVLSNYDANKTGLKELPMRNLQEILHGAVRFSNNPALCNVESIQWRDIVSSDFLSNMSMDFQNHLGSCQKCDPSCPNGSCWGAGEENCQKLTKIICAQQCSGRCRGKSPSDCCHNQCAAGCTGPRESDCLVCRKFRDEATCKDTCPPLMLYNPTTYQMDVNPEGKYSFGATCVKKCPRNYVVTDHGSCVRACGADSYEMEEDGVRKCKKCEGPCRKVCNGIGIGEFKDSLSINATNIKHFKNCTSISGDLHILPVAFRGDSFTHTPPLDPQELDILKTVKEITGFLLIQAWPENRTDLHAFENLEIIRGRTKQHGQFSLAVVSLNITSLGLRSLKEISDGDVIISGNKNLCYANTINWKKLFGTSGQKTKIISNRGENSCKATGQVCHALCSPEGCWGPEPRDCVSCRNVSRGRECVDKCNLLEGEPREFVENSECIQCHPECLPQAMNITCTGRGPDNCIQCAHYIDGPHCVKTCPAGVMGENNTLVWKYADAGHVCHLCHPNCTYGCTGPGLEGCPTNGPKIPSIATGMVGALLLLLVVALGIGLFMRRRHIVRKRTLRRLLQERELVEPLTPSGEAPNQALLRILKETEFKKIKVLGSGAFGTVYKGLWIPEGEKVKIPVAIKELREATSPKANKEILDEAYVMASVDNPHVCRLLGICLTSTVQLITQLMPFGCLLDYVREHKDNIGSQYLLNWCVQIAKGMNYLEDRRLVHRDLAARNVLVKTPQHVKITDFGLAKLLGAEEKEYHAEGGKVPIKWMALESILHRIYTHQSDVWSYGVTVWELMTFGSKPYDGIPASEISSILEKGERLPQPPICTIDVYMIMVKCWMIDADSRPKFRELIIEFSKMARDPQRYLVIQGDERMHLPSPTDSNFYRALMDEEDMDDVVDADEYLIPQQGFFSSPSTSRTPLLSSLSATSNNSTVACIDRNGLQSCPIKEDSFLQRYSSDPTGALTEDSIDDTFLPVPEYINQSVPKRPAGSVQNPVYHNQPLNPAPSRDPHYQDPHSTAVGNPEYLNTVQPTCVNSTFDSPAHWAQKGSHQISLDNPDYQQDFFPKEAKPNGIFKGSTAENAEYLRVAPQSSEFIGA

Chain of VEGFR2 (KDR) (P35968 20-1356): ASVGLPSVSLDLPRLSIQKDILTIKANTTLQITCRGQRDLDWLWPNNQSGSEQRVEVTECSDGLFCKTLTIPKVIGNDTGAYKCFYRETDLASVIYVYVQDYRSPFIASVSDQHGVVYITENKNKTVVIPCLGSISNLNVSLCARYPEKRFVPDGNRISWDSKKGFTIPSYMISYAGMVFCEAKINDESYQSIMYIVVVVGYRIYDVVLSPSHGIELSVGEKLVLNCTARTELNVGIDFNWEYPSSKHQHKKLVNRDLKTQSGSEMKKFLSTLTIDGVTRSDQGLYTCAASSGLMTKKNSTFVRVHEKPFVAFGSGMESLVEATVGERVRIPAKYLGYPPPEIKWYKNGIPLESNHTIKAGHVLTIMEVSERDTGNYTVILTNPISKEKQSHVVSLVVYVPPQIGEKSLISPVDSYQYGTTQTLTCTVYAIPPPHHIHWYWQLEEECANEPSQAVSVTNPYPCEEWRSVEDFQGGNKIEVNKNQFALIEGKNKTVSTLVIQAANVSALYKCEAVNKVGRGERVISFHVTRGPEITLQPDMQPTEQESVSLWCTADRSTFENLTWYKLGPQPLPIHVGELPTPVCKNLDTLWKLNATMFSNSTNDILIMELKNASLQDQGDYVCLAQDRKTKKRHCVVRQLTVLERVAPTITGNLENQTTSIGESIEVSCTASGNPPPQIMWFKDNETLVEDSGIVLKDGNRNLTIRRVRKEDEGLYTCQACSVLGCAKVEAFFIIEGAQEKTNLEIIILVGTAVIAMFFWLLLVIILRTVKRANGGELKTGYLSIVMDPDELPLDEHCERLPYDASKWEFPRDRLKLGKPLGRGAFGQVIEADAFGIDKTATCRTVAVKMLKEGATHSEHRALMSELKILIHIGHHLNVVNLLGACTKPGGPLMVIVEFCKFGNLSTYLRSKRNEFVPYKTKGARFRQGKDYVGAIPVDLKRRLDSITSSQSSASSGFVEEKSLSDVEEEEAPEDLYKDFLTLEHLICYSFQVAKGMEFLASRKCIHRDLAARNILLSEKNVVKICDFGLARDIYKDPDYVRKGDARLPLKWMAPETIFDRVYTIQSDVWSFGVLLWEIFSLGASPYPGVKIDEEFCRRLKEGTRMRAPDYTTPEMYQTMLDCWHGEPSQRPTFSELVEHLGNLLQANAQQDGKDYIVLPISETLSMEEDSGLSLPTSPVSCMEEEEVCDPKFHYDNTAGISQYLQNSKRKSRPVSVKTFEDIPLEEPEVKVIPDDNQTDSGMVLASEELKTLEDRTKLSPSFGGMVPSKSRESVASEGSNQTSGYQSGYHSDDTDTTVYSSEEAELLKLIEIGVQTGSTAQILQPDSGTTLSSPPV

SMILES | IC50 (VEGFR2 (KDR)) | IC50 [1] | IC50 [2] | IC50 [4] | IC50 (EGFR1 (HER-1)) | IC50 [3]
C=CC(=O)Nc1cc2c(Nc3ccc(Br)cc3F)ncnc2cc1OCC1CCN(C(N)=O)CC1 [Example 4, 4-[6-acryloylamino-4-(4-bromo-2-fluoro-phenylamino)-quinazolin-7-yloxymethyl]-piperidin-1-carboxylic acid amide] | 136 nM | 5680 nM | 25 nM | 147 nM | 15 nM | 87 nM
C=CC(=O)Nc1cc2c(Nc3ccc(Br)cc3F)ncnc2cc1OCC1CCN(C(=O)CS(C)(=O)=O)CC1 [Example 3, N-{4-(4-bromo-2-fluoro-phenylamino)-7-[1-(2-methanesulfonyl-acetyl)-piperidin-4-ylmethoxy]-quinazolin-6-yl}-acrylamide] | 108 nM | 6310 nM | 48 nM | 216 nM | 26 nM | 90 nM
C=CC(=O)Nc1cc2c(Nc3ccc(Br)cc3F)ncnc2cc1OCCNC(=O)C1CCCN1C(=O)CC (stereo not drawn) [Example 106, 1-propionyl-pyrrolidine-2-carboxylic acid {2-[6-acryloylamino-4-(4-bromo-2-fluoro-phenylamino)-quinazolin-7-yloxy]-ethyl}-amide] | 853 nM | 2800 nM | 264 nM | 311 nM | 196 nM | 951 nM
C=CC(=O)Nc1cc2c(Nc3ccc(F)cc3F)ncnc2cc1OCCNC(=O)CN(C)C [Example 68, N-[4-(2,4-difluorophenylamino)-7-{2-[2-(dimethylamino)-acetylamino]-ethoxy}-quinazolin-6-yl]-acrylamide] | 687 nM | 725 nM | 265 nM | 564 nM | 156 nM | 682 nM
C=CC(=O)Nc1cc2c(Nc3ccc(Br)cc3F)ncnc2cc1OCCNC(=O)C(COC)N(C)C (stereo not drawn) [Example 161, N-{4-(4-bromo-2-fluoro-phenylamino)-7-[2-(2-dimethylamino-3-methoxy-propionylamino)-ethoxy]-quinazolin-6-yl}-acrylamide] | 1120 nM | 10000 nM | 95 nM | 118 nM | 57 nM | 1230 nM
C=CC(=O)Nc1cc2c(Nc3ccc(Br)cc3F)ncnc2cc1OCc1ccncc1 [Example 6, N-[4-(4-bromo-2-fluoro-phenylamino)-7-(pyridin-4-ylmethoxy)-quinazolin-6-yl]-acrylamide] | 500 nM | 8460 nM | 168 nM | 1350 nM | 56 nM | 450 nM

Continued, in another order:

IC50 (VEGFR2 (KDR)) | IC50 [1] | IC50 [2] | IC50 [4] | IC50 (EGFR1 (HER-1)) | SMILES | IC50 [3]
45 nM | 2580 nM | 51 nM | 266 nM | 36 nM | C=CC(=O)Nc1cc2c(Nc3ccc(Br)cc3F)ncnc2cc1OCC1CCN(C(=O)NCCC)CC1 [Example 9, 4-[6-acryloylamino-4-(4-bromo-2-fluoro-phenylamino)-quinazolin-7-yloxymethyl]-piperidin-1-carboxylic acid propylamide] | 48 nM
784 nM | 2760 nM | 38 nM | 178 nM | 29 nM | C=CC(=O)Nc1cc2c(Nc3ccc(Br)cc3F)ncnc2cc1OCC(C)NC(=O)NCCC (stereo not drawn) [Example 85, N-{4-(4-bromo-2-fluoro-phenylamino)-7-[2-(3-propyl-ureido)-propoxy]-quinazolin-6-yl}-acrylamide] | 964 nM
157 nM | 10000 nM | 28 nM | 45 nM | 4 nM | C=CC(=O)Nc1cc2c(Nc3ccc(Br)cc3F)ncnc2cc1OCCCNC(C)=O [Example 13, N-[7-(3-acetylamino-propoxy)-4-(4-bromo-2-fluoro-phenylamino)-quinazolin-6-yl]-acrylamide] | 79 nM
